{"source": "patent US20230218557A1", "about": "“A FATTY ACID BASED COMPOSITION FOR TREATMENT AND/OR PREVENTION OF ENVELOPED-VIRUS RELATED INFECTIONS” (priority 2020, published 2023)", "key": {"[1]": {"tested_on": "SARS-CoV-2 virus (WA1/2020) strain", "format": "cell-based", "conditions": "for antiviral activity (in words): incubated with SARS-CoV-2; for % viral reduction: virus pre-incubated 10 minutes with sample (conc./dilution per Table 2A), diluted four times, added to vero cells, 48/72 hours, supernatant plaque assay"}, "viral particles": {"tested_on": "viral particles", "conditions": "electron microscopy; cited from earlier work"}}}
{"compound": "CC/C=C\\C/C=C\\C/C=C\\CCCCCCCC(=O)O", "note": "[ALA, α-linolenic acid]", "values": [{"measurement": "antiviral activity (in words)", "setting": "[1]", "value": "showed antiviral activity"}, {"measurement": "% viral reduction", "setting": "[1]", "value": 97.13, "unit": "%"}]}
{"compound": "CCCCC/C=C\\C/C=C\\C/C=C\\CCCCC(=O)O", "note": "[GLA, gamma-linolenic acid]", "values": [{"measurement": "antiviral activity (in words)", "setting": "[1]", "value": "showed antiviral activity"}, {"measurement": "% viral reduction", "setting": "[1]", "value": 96.98, "unit": "%"}, {"measurement": "virucidal effect (in words)", "setting": "viral particles", "value": "lyse and completely disintegrate viral particles"}]}
{"compound": "CCCCC/C=C\\C/C=C\\CCCCCCCC(=O)O", "note": "[LA, Linoleic acid]", "values": [{"measurement": "antiviral activity (in words)", "setting": "[1]", "value": "showed antiviral activity"}, {"measurement": "% viral reduction", "setting": "[1]", "value": 97.42, "unit": "%"}, {"measurement": "virucidal effect (in words)", "setting": "viral particles", "value": "lyse and completely disintegrate viral particles"}]}
{"compound": "Triton X100 [reference compound]", "values": [{"measurement": "% viral reduction", "setting": "[1]", "value": 95.23, "unit": "%"}]}
